{
  "source": "patent US20080318255A1",
  "about": "“Fluorescent Labeled Sphingosines” (priority 2003, published 2008)",
  "key": {"human SPHK-1": {"target": "T1, human SPHK-1 (Homo sapiens, UniProt Q9NYA1)", "T1 construct": "expressed in transfected cells; host or cells: HEK-293 (cytoplasmic fraction)", "T1 sequence (Q9NYA1 whole entry)": "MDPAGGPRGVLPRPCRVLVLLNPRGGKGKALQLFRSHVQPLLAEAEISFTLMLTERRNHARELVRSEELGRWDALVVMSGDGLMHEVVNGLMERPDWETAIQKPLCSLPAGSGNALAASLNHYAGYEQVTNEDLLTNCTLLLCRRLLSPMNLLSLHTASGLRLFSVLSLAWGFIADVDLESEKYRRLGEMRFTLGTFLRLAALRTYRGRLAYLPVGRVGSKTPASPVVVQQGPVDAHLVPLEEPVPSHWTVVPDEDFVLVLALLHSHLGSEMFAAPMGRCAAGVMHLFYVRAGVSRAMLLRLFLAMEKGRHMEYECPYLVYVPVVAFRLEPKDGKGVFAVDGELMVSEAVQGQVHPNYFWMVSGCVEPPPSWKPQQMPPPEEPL", "assay": "Phosphorylation of fluorescent labeled sphingosines by SPHK-1 ([γ-32P]ATP, TLC)", "type": "biochemical", "settings": "for rate of phosphorylation (phosphate conversion rate) relative to sphingosine (=1), SPHK-1: 20 μM substrate, cytoplasmic fraction of HEK-293 cells overexpressing human SPHK-1; for times (fold) less efficiently converted to the phosphate than SP, SPHK-1: compared to sphingosine (SP); for reduction of phosphorylation efficiency (factor), SPHK-1: compared to compound of example 4", "experimental": "(§1) The phosphorylation reactions are performed essentially as follows. The cytoplasmic fraction of recombinant HEK-293 cells overexpressing human SPHK-1 or -2 is incubated at 30° in total volumes of 100 μl with SP derivatives (20 μM; added from stock solutions in DMSO), 1 mM of ATP, and 2 μCi [γ-^32P]ATP in 50 mM Hepes buffer (pH 7.4) containing 15 mM MgCl2, 0.005% Triton X-100, 10 mM KCl , 10 mM NaF and 1.5 mM semicarbazide. Following incubations for different time points up to 2 hours, lipids are extracted and separated by TLC-plates (Merck). TLC is performed on silica plates, using either BuOH/acetic acid/H2O 3:1:1 or CHCl3/MeOH/H2O/NH4OH (28^w/w%) 200:150:29:1 as the mobile phase. In these systems sphingosine and the compound of Example 4 co-migrate. Identity of the metabolites with pyrene-labeled SPP and sphingomyelin (SM) is established by co-migration with commercially available tritium-labeled SPP and SM as standards.\n(§2) Radiolabeled SPP derivatives are visualized and quantified using a Molecular Dynamics Storm Phosphorlmager (Sunnyvale, Calif.). The rate of phosphorylation is calculated and is reported for the fluorescent labeled sphingosines as value relative to the rate for sphingosine (for which the rate is 41 and 25 nmol/min/mg with SPHK-1 and -2, respectively).\n(§3) The fluorescently labeled sphingosines of examples 1-7 are used as substrates for human recombinant SPHK-1 and SPHK-2 and all of them are converted to phosphorylated derivatives as visualized by the incorporation of radiolabeled phosphate upon incubation with [γ-32P]ATP and the kinases. The rates of phosphorylation (phosphate conversion rate) are determined and summarized in Table A relative to the natural substrate sphingosine (=SP), which has the assumed value of 1."}, "human SPHK-2": {"target": "T2, human SPHK-2 (Homo sapiens, UniProt Q9NRA0)", "T2 construct": "expressed in transfected cells; host or cells: HEK-293 (cytoplasmic fraction)", "T2 sequence (Q9NRA0 1-654)": "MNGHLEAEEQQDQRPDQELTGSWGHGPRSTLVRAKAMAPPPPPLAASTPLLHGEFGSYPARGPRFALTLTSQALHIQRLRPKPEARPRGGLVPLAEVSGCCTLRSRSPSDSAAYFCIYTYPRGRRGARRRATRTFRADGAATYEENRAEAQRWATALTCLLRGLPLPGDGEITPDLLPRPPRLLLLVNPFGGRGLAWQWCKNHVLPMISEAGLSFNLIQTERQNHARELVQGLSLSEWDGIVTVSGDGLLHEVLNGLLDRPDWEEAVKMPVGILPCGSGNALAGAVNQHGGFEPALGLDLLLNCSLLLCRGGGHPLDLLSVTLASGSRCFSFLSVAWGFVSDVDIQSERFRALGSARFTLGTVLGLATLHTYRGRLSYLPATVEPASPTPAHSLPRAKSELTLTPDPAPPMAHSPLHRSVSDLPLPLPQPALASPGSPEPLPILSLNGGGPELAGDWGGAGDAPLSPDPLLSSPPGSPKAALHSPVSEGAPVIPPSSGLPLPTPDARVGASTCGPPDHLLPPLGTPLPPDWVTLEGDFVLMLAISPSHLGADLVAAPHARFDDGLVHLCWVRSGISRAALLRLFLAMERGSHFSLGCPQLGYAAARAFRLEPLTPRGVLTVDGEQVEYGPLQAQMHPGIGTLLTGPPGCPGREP", "assay": "Phosphorylation of fluorescent labeled sphingosines by SPHK-2 ([γ-32P]ATP, TLC)", "type": "biochemical", "settings": "for rate of phosphorylation (phosphate conversion rate) relative to sphingosine (=1), SPHK-2: 20 μM substrate, cytoplasmic fraction of HEK-293 cells overexpressing human SPHK-2", "experimental": "as §1, §2, §3"}, "[1]": {"test_system": "human endothelial cells (HUVEC)", "assay": "Uptake, subcellular distribution and metabolism of fluorescent labeled sphingosines in human endothelial cells", "type": "cell-based", "text": "To examine the uptake, subcellular distribution and metabolism (conversion to the phosphate) in human endothelial cells (HUVEC), the pyrene labeled sphingosine of example 4 is used. […] Furthermore, the compound is converted intracellularly into 4 products as shown by thin-layer chromatography."}, "sphingosine kinase": {"test_system": "sphingosine kinase", "assay": "Fluorimetric assay of sphingosine kinase activity", "type": "biochemical", "text": "We have determined that sphingosine kinase in the presence of ATP phosphorylates a compound COMPA (compound of Example 23), which is a fluorescent labeled sphingosine, to obtain a corresponding phosphorylated compound COMPA-P (compound of Example 24) according to the Reaction SCHEME 4 as set out below.\nwherein residues are as defined above and R3 is H. such as phosphorylation of a compound of Example […] by a sphingosine kinase to obtain a compound of Example […] in the presence of ATP. COMPA and COMPB are separated by liquid-liquid extraction. Fluorescence as a measure of enzyme activity of a compound of formula COMPA-P in the aqueous phase is quantified. In detail:\nSphingosine kinase is incubated in total volumes of 100 μl with a compound of formula COMPA (20 μM, added from stock solutions in DMSO) and ATP (1 mM) in 50 mM Hepes buffer, pH 7.4, containing 15 mM MgCl2, 0.005% Triton X-100, 10 mM KCl for 30 minutes at 30° and to the mixture obtained 100 μl 1 M potassium phosphate buffer, pH 8.5, followed by 250 μl CHCl3/MeOH 2:1 are added. […]\nFluorescence intensity is measured in a plate reader with excitation at 485 nm and emission at 538 nm. […] From the fluorescence intensity, concentrations of a compound of formula COMPA-P are calculated using appropriate calibration curves in the same solvent system. […]"}, "[2]": {"test_system": "HUVEC overexpressing SPHK-1 or SPHK-2", "assay": "Sphingolipid turnover of labeled sphingosines in HUVEC transiently transfected with SPHK-1 and SPHK-2", "type": "cell-based, human", "settings": "FIG. 3, transfected cells, TLC", "experimental": "HUVEC as described in Test Example 4 are seeded in 6-well plates at 50% confluency and grown overnight. Grown cells obtained are transfected using Lipofectamine Plus reagent with an empty vector (GFP-vector from Clontech) alone and GFP-tagged expression constructs coding for SPHK-1 and SPHK-2. Transfection is carried out for 20 hours. To the transfected cells obtained a labeled compound of formula I wherein X is (HO)2PO is added at 2 μM and incubated for 0.5 hours, 1 hour and 3 hours, respectively. Lipids are extracted and the extraction residue obtained is subjected to TLC using BuOH/AcOH/H2O 3:1:1 as a solvent system. TLC plates obtained are scanned using CCD camera and density of the lipid products obtained is measured using AlphaImage 2200 (see FIG. 3)."}},
  "data": [
    {"compound": "N[C@@H](CO)[C@H](O)/C=C/CCCOC(=O)CCCc1cc2ccc3cccc4ccc(c1)c2c34", "note": "[Example 1]", "values": [
      {"measurement": "rate of phosphorylation (phosphate conversion rate) relative to sphingosine (=1), SPHK-1", "setting": "human SPHK-1; 1 mM ATP, 30°", "value": 0.048},
      {"measurement": "times (fold) less efficiently converted to the phosphate than SP, SPHK-1", "setting": "human SPHK-1", "value": "about 20"},
      {"measurement": "rate of phosphorylation (phosphate conversion rate) relative to sphingosine (=1), SPHK-2", "setting": "human SPHK-2; 1 mM ATP, 30°", "value": 0.14}
    ]},
    {"compound": "N[C@@H](CO)[C@H](O)/C=C/CCCOC(=O)CCCCCc1cc2ccc3cccc4ccc(c1)c2c34", "note": "[Example 2]", "values": [
      {"measurement": "rate of phosphorylation (phosphate conversion rate) relative to sphingosine (=1), SPHK-1", "setting": "human SPHK-1; 1 mM ATP, 30°", "value": 0.078},
      {"measurement": "improvement of phosphorylation rate by a factor, SPHK-1", "setting": "human SPHK-1; compared to example 1", "value": 2},
      {"measurement": "rate of phosphorylation (phosphate conversion rate) relative to sphingosine (=1), SPHK-2", "setting": "human SPHK-2; 1 mM ATP, 30°", "value": 0.83}
    ]},
    {"compound": "N[C@@H](CO)[C@H](O)/C=C/CCCOC(=O)CCCCCCCCCc1cc2ccc3cccc4ccc(c1)c2c34", "note": "[Example 3]", "values": [
      {"measurement": "rate of phosphorylation (phosphate conversion rate) relative to sphingosine (=1), SPHK-1", "setting": "human SPHK-1; 1 mM ATP, 30°", "value": 0.024},
      {"measurement": "times (fold) less efficiently converted to the phosphate than SP, SPHK-1", "setting": "human SPHK-1", "value": "about 40"},
      {"measurement": "rate of phosphorylation (phosphate conversion rate) relative to sphingosine (=1), SPHK-2", "setting": "human SPHK-2; 1 mM ATP, 30°", "value": 0.065}
    ]},
    {"compound": "N[C@@H](CO)[C@H](O)/C=C/CCCCCCCCCCOC(=O)c1cc2ccc3cccc4ccc(c1)c2c34", "note": "[Example 4]", "values": [
      {"measurement": "phosphorylation by SPHK-1 (in words)", "setting": "human SPHK-1", "value": "almost equal phosphorylation by SPHK-1 relative to natural SP"},
      {"measurement": "rate of phosphorylation (phosphate conversion rate) relative to sphingosine (=1), SPHK-1", "setting": "human SPHK-1; 1 mM ATP, 30°", "value": 0.83},
      {"measurement": "degradation of the ester functionality", "setting": "human SPHK-1; short term in vitro phosphorylation experiments", "value": "no degradation is observed"},
      {"measurement": "time to incorporation into the cells after addition", "setting": "[1]", "value": "≤ 5", "unit": "min"},
      {"measurement": "subcellular distribution", "setting": "[1]; after 15-30 minutes of incubation", "value": "predominantly distribution to the endoplasmic reticulum and to the Golgi apparatus"},
      {"measurement": "major metabolite", "setting": "[1]; thin-layer chromatography", "value": "co-migrates with sphingosine-1-phosphate (SPP)"},
      {"measurement": "number of products formed intracellularly", "setting": "[1]; thin-layer chromatography", "value": 4},
      {"measurement": "rate of phosphorylation (phosphate conversion rate) relative to sphingosine (=1), SPHK-2", "setting": "human SPHK-2; 1 mM ATP, 30°", "value": 1.25}
    ]},
    {"compound": "N[C@@H](CO)[C@H](O)/C=C/CCCCCCCCCCNC(=O)c1cc2ccc3cccc4ccc(c1)c2c34", "note": "[Example 5]", "values": [
      {"measurement": "rate of phosphorylation (phosphate conversion rate) relative to sphingosine (=1), SPHK-1", "setting": "human SPHK-1; 1 mM ATP, 30°", "value": 0.28},
      {"measurement": "reduction of phosphorylation efficiency (factor), SPHK-1", "setting": "human SPHK-1", "value": 2},
      {"measurement": "rate of phosphorylation (phosphate conversion rate) relative to sphingosine (=1), SPHK-2", "setting": "human SPHK-2; 1 mM ATP, 30°", "value": 0.59},
      {"measurement": "reduction of phosphorylation efficiency (factor), SPHK-2", "setting": "human SPHK-2; compared to compound of example 4", "value": 3}
    ]},
    {"compound": "N[C@@H](CO)[C@H](O)/C=C/CCCCCCCCCCNS(=O)(=O)c1cc2ccc3cccc4ccc(c1)c2c34", "note": "[Example 6]", "values": [
      {"measurement": "rate of phosphorylation (phosphate conversion rate) relative to sphingosine (=1), SPHK-1", "setting": "human SPHK-1; 1 mM ATP, 30°", "value": 0.051},
      {"measurement": "reduction of phosphorylation efficiency (factor), SPHK-1", "setting": "human SPHK-1", "value": "about 20"},
      {"measurement": "phosphorylation by SPHK-2 (in words)", "setting": "human SPHK-2", "value": "almost as efficiently as SP"},
      {"measurement": "rate of phosphorylation (phosphate conversion rate) relative to sphingosine (=1), SPHK-2", "setting": "human SPHK-2; 1 mM ATP, 30°", "value": 0.83}
    ]},
    {"compound": "CN(C)c1cccc2c(S(=O)(=O)NCCCCCCCCCC/C=C/[C@@H](O)[C@@H](N)CO)cccc12", "note": "[Example 7]", "values": [
      {"measurement": "rate of phosphorylation (phosphate conversion rate) relative to sphingosine (=1), SPHK-1", "setting": "human SPHK-1; 1 mM ATP, 30°", "value": 0.063},
      {"measurement": "rate of phosphorylation (phosphate conversion rate) relative to sphingosine (=1), SPHK-2", "setting": "human SPHK-2; 1 mM ATP, 30°", "value": 0.026}
    ]},
    {"compound": "N[C@H](COCCCCCCCCCCCNc1ccc([N+](=O)[O-])c2nonc12)COP(=O)(O)O", "note": "[Example 23, Phosphoric acid mono-{(R)-2-amino-3-[11-(7-nitro-benzo[1,2,5]oxadiazol-4-ylamino)-undecyloxy]-propyl}ester]", "values": [
      {"measurement": "phosphorylation by sphingosine kinase in the presence of ATP", "setting": "sphingosine kinase", "value": "phosphorylates"}
    ]},
    {"compound": "N[C@@H](CO)[C@H](O)/C=C/CCCCCCCCCCNc1ccc([N+](=O)[O-])c2nonc12", "note": "[Example 24]", "values": [
      {"measurement": "phosphorylation in cells overexpressing SPHK-1 versus SPHK-2", "setting": "[2]", "value": "phosphorylated more efficient by SPHK-2 than by SPHK-1"}
    ]},
    {"compound": "CCCCCCCCCCCCC/C=C/[C@@H](O)[C@@H](N)CO", "note": "[sphingosine]", "values": [
      {"measurement": "rate of phosphorylation with SPHK-1", "setting": "human SPHK-1; 20 μM, 1 mM ATP, 30°", "value": 41, "unit": "nmol/min/mg"},
      {"measurement": "rate of phosphorylation with SPHK-2", "setting": "human SPHK-2; 20 μM, 1 mM ATP, 30°", "value": 25, "unit": "nmol/min/mg"}
    ]}
  ]
}
